What was measured:
[1] = molecular target: T1, Enoyl-acyl-carrier protein reductase (Plasmodium falciparum, UniProt Q965D5); assay: Inhibition of Plasmodium falciparum ENR using NADH substrate
T1 sequence (Q965D5 whole entry): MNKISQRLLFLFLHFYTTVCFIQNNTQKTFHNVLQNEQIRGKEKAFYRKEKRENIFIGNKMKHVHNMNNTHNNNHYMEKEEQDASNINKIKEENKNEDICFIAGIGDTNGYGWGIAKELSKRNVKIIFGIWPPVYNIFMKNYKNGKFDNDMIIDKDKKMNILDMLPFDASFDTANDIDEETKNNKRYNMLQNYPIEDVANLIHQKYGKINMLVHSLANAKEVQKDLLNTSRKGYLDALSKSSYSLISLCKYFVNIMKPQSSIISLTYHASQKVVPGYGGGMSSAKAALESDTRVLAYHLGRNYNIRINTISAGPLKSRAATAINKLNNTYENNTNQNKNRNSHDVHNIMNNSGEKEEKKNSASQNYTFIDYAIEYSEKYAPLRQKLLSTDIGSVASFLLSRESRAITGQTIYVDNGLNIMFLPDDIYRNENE

[2] = molecular target: T1, Enoyl-acyl-carrier protein reductase; assay: Inhibition of Plasmodium falciparum ENR using crotonyl-CoA substrate
[3] = molecular target: T1, Enoyl-acyl-carrier protein reductase; assay: Inhibition of Plasmodium falciparum ENR
[4] = molecular target: T2, Enoyl-[acyl-carrier-protein] reductase [NADH] FabI (Escherichia coli K-12, UniProt P0AEK4); assay: Inhibition of Escherichia coli ENR
T2 sequence (P0AEK4 whole entry): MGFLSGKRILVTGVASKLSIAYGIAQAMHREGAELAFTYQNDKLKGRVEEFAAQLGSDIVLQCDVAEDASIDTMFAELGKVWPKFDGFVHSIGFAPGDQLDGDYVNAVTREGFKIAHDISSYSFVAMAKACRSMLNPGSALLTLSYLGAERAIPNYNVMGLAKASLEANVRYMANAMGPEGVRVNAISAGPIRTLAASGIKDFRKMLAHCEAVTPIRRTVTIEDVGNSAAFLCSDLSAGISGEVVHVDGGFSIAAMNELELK

[5] = molecular target: T1, Enoyl-acyl-carrier protein reductase; assay: Inhibition of Plasmodium falciparum ENR in presence of triclosan
[6] = molecular target: T1, Enoyl-acyl-carrier protein reductase; assay: Inhibition of Plasmodium falciparum ENR in presence of ECG
[7] = molecular target: T1, Enoyl-acyl-carrier protein reductase; assay: Inhibition of Plasmodium falciparum ENR in presence of EGCG
[8] = molecular target: T1, Enoyl-acyl-carrier protein reductase; assay: Inhibition of Plasmodium falciparum ENR by fluorescence quenching in presence of EGCG
[9] = molecular target: T1, Enoyl-acyl-carrier protein reductase; assay: Inhibition of Plasmodium falciparum ENR by fluorescence quenching in presence of quercetin
[10] = molecular target: T1, Enoyl-acyl-carrier protein reductase; assay: Inhibition of Plasmodium falciparum ENR in presence of EGCG by dilution assay
[11] = molecular target: T1, Enoyl-acyl-carrier protein reductase; assay: Inhibition of Plasmodium falciparum ENR in presence of quercetin
[12] = molecular target: T1, Enoyl-acyl-carrier protein reductase; assay: Inhibition of Plasmodium falciparum ENR in presence of ECG by dilution assay
[13] = molecular target: T1, Enoyl-acyl-carrier protein reductase; assay: Inhibition of Plasmodium falciparum ENR in presence of EGC by dilution assay
[14] = molecular target: T1, Enoyl-acyl-carrier protein reductase; assay: Inhibition of Plasmodium falciparum ENR in presence of EGC
[15] = molecular target: T1, Enoyl-acyl-carrier protein reductase; assay: Inhibition of Plasmodium falciparum ENR by fluorescence quenching in presence of ECG
[16] = molecular target: T1, Enoyl-acyl-carrier protein reductase; assay: Inhibition of Plasmodium falciparum ENR by fluorescence quenching in presence of butein
[17] = molecular target: T1, Enoyl-acyl-carrier protein reductase; assay: Inhibition of Plasmodium falciparum ENR by fluorescence quenching in presence of EGC
[18] = molecular target: T1, Enoyl-acyl-carrier protein reductase; assay: Inhibition of Plasmodium falciparum ENR in presence of butein by dilution assay
[19] = molecular target: T1, Enoyl-acyl-carrier protein reductase; assay: Inhibition of Plasmodium falciparum ENR in presence of quercetin by dilution assay
[20] = molecular target: T1, Enoyl-acyl-carrier protein reductase; assay: Inhibition of Plasmodium falciparum ENR in presence of butein

In the case of O=c1c(O)c(-c2ccc(O)c(O)c2)oc2cc(O)cc(O)c12 [QUERCETIN], the Ki [1] is reported as 1090 nM, the Ki [2] is reported as 473 nM and the IC50 [3] is reported as 2500 nM. The IC50 [4] was 20000 nM and the Ki [5] was 22 nM.

O=C(/C=C/c1ccc(O)c(O)c1)c1ccc(O)cc1O [BUTEIN] showed a Ki [1] of 5500 nM, a Ki [2] of 2970 nM and an IC50 [3] of 12500 nM. For the same compound, the IC50 [4] was 30000 nM and the Ki [5] was 14 nM.

With Oc1cc(O)c2c(c1)O[C@H](c1cc(O)c(O)c(O)c1)[C@H](O)C2 [EPIGALLOCATECHIN] the Ki [1] was 3750 nM, the Ki [2] was 2000 nM and the IC50 [3] was 7000 nM. It also gave an IC50 [4] greater than 100000 nM and a Ki [5] of 17.6 nM.

In the case of Oc1cc(Cl)ccc1Oc1ccc(Cl)cc1Cl [TRICLOSAN], the Ki [6] is reported as 8 nM, the Ki [7] is reported as 1 nM and the Ki [8] is reported as 7.29 nM. For the same compound, the Ki [9] was 30.5 nM, the Ki [10] was 0.0019 nM and the Ki [11] was 10 nM. It also gave a Ki [12] of 0.0521 nM, a Ki [13] of 0.109 nM and a Ki [14] of 8.25 nM. It also gave a Ki [15] of 28.3 nM, a Ki [16] of 71 nM and a Ki [17] of 52.7 nM. For the same compound, the Ki [18] was 0.798 nM, the Ki [19] was 0.281 nM and the Ki [20] was 13.7 nM.

O=C(O[C@@H]1Cc2c(O)cc(O)cc2O[C@@H]1c1cc(O)c(O)c(O)c1)c1cc(O)c(O)c(O)c1 [EPIGALOCATECHIN GALLATE] gave a Ki [1] of 186 nM, a Ki [2] of 79 nM and an IC50 [3] of 250 nM. It also gave an IC50 [4] of 15000 nM and a Ki [5] of 8 nM.

O=C(O[C@@H]1Cc2c(O)cc(O)cc2O[C@@H]1c1ccc(O)c(O)c1)c1cc(O)c(O)c(O)c1 [EPICATECHIN GALLATE] showed a Ki [1] of 291 nM, a Ki [2] of 102 nM and an IC50 [3] of 500 nM. It also gave an IC50 [4] of 10000 nM and a Ki [5] of 16 nM.
